In this experiment the test system is Botrytis cinerea. As to the kind of experiment: Botrytis cinerea fruit rot on wounded apple, post-harvest spray (Example 2). The format is in vivo.

For `C[C@@H]1C/C=C/C=C/C=C/C=C/[C@H](O[C@@H]2O[C@H](C)[C@@H](O)[C@H](N)[C@@H]2O)C[C@@H]2O[C@](O)(C[C@@H](O)C[C@H]3O[C@@H]3/C=C/C(=O)O1)C[C@H](O)[C@H]2C(=O)O` [natamycin], the “Rot on apples, comparison in words” value (five and six days after inoculation) is “clearly lower”. Besides, for the setting “two days after inoculation”, the “Botrytis fruit rot symptoms (in words)” value is listed as “did not show any symptoms”.

Source of the values: US9635855B2, “Polyelectrolyte complexes for biocide enhancement” (priority 2012, dated 2017).
